In ChEMBL document CHEMBL1201862, “PubChem BioAssay data set” (2004):
Active and inactive are the calls of the source.

Tests used:
Insulin-degrading enzyme [1] = biological target: T1, Insulin-degrading enzyme (Homo sapiens, UniProt P14735); experiment: activators of recombinant IDE enzyme, dose response, counter-screen for IDE activator project, biochemical, fluorescence polarization (AID 588681)
T1 sequence (P14735 whole entry): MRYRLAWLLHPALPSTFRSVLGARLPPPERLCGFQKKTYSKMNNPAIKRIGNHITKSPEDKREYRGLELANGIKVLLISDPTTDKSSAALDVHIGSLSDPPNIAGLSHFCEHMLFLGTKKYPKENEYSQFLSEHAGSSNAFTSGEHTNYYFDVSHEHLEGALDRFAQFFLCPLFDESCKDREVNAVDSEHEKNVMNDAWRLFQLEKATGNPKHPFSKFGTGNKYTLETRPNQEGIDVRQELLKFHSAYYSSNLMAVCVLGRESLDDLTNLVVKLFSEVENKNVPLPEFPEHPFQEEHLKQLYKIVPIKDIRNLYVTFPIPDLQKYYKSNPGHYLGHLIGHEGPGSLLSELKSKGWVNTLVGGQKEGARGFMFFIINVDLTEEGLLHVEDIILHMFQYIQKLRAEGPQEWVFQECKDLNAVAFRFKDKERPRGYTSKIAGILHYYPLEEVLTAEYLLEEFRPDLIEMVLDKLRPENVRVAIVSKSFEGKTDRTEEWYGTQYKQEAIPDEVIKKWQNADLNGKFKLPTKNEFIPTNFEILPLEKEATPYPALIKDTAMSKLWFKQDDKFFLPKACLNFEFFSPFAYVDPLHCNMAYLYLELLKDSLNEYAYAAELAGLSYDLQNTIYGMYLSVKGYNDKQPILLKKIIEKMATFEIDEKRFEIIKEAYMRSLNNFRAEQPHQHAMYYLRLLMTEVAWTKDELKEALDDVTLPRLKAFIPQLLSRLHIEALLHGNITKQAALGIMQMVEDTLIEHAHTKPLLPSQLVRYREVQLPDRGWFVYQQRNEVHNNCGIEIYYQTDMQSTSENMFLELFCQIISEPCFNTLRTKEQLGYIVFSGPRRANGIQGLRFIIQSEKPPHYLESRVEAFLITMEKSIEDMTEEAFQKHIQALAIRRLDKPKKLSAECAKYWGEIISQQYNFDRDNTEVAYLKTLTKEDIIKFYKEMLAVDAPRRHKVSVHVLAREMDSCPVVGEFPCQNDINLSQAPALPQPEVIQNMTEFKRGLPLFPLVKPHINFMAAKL

Insulin-degrading enzyme [2] = biological target: T1, Insulin-degrading enzyme; experiment: activators of endogenous IDE in HEK cells, dose response, cell-based, fluorescence polarization (AID 588439); assay type: functional
HEK293 [3] = experiment: HEK cell cytotoxicity by LDH release, dose response, cytotoxicity control for IDE activator project, fluorescence, HEK cells (AID 588440); assay type: functional, cell-based; conditions: Homo sapiens;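 also: cytotoxicity by LDH release measuring loss of membrane integrity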
HEK293 [4] = experiment: optical interference in Abeta FP readout, dose response, artefact control for IDE activator project, biochemical, fluorescence polarization (AID 588442); assay type: functional, cell-based; conditions: Homo sapiens
HEK293 [5] = experiment: inhibitors of LMP1-driven NF-kB reporter, dose response, cell-based, HEK293, luciferase, cherry-pick (AID 588343); assay type: functional; conditions: Homo sapiens
[6] = biological target: Latent membrane protein 1 (Human herpesvirus 4 (strain B95-8), UniProt P03230); experiment: TES1-eGFP NF-kB reporter inhibition versus Tet-On dsRED, dose response, selectivity assay for LMP1 NF-kB inhibitor project, imaging, HEK293T, dual-color eGFP/dsRED, cherry-picks (AID 588398); assay type: functional, cell-based
Latent membrane protein 1, sequence (P03230 whole entry): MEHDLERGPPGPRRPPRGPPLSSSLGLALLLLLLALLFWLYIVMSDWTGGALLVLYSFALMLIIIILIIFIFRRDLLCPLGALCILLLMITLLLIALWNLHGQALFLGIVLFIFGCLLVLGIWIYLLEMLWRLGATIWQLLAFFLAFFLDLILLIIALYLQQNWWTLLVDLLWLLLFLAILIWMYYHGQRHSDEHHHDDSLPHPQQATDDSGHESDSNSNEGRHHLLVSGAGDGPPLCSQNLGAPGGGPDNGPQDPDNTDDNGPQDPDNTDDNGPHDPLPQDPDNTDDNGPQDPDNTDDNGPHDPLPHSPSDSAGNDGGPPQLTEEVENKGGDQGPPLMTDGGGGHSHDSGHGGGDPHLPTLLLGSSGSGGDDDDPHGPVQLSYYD

INS1 = experiment: beta cell apoptosis inhibitors, cytokine rescue, dose response, luminescence, retest (AID 449756); assay type: functional, cell-based; conditions: Rattus norvegicus;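 also: cell death triggered by IL-1 beta plus TNF-alpha plus IFN-gamma mixture; protective hits raise ATP signal compared with cytokine alone wells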
[7] = Shn3 3'UTR reporter inhibitors, dose response, cell-based, Clone20 osteoblasts, firefly luciferase, cherry-picked (AID 624132); assay type: functional;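 also: firefly luciferase luminescence from reporter carrying the Shn3 3'UTR in osteoblasts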
[8] = HepG2 cell cytotoxicity, dose response, cytotoxicity control for Shn3 inhibitor project, CellTiter-Glo, cherry-picked (AID 624134); assay type: functional, cell-based
[9] = control 3'UTR Renilla luciferase suppression, dose response, counter-screen for Shn3 inhibitor project, cell-based, Clone20-Shn3RL, cherry-picked (AID 624133); assay type: functional
[10] = biological target: 26S proteasome non-ATPase regulatory subunit 14 (Homo sapiens, UniProt O00487); experiment: inhibition of proteasome subunit RPN11 – biochemical, fluorescence polarization, uHTS hits, confirmation (AID 602368); assay type: functional
26S proteasome non-ATPase regulatory subunit 14, sequence (O00487 whole entry): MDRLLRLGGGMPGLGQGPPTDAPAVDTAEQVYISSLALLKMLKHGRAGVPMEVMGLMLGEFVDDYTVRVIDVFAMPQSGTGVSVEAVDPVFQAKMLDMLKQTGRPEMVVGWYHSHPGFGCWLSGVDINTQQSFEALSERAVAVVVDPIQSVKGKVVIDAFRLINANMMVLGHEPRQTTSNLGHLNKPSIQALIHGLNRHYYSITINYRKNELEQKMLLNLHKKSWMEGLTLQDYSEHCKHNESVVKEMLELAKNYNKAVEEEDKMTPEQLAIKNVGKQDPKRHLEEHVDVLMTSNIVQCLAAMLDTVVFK

[11] = biological target: 72 kDa type IV collagenase (Homo sapiens, UniProt P08253); experiment: Dose Response validation of uHTS RPN11 inhibitor hits using a MMP-2 Fluorescence assay.; assay type: functional
72 kDa type IV collagenase, sequence (P08253 whole entry): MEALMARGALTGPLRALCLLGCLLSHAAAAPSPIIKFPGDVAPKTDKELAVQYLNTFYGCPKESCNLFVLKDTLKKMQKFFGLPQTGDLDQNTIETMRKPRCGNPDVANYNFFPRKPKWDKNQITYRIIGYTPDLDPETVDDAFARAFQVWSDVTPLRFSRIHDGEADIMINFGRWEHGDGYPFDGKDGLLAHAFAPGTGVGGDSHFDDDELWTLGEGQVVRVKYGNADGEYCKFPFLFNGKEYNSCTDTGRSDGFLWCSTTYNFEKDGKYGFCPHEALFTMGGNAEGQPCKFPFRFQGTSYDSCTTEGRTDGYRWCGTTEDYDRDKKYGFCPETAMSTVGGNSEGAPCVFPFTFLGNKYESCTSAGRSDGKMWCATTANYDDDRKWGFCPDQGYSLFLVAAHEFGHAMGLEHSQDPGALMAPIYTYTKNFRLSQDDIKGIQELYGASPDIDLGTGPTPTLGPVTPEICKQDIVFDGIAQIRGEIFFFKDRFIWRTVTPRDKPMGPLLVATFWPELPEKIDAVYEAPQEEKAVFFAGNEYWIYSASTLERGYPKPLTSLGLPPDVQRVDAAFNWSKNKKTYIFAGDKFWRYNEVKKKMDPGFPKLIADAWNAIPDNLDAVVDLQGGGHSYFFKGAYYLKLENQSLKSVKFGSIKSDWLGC

Prothrombin = Prothrombin (Bos taurus, UniProt P00735); experiment: thrombin inhibition, dose response, biochemical, fluorescence polarization, uHTS hits (AID 602369); assay type: functional
[12] = biological target: Induced myeloid leukemia cell differentiation protein Mcl-1 (Homo sapiens, UniProt Q07820); assay type: functional
Induced myeloid leukemia cell differentiation protein Mcl-1, sequence (Q07820 whole entry): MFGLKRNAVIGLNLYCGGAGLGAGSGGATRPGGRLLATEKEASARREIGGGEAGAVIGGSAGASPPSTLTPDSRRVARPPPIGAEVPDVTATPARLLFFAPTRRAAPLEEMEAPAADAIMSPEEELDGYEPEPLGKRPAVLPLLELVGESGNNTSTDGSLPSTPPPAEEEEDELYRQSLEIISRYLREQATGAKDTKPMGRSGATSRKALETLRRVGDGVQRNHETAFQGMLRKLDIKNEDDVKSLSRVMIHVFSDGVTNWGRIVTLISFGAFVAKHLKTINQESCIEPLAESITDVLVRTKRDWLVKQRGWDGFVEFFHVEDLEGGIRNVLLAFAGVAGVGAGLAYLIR

Which EC50 (Insulin-degrading enzyme [1]) does the source give for `Cc1cc(Oc2ccc(C#N)cc2)nc(N2CCOCC2)n1` here?
Its EC50 is > 54.7 µM (inactive).

And the EC50 (Insulin-degrading enzyme [2])?
The EC50 was > 54.7 µM (inactive).

And the IC50 (HEK293 [3])?
The IC50 was > 89.2 µM (inactive).

And the EC50 (HEK293 [4])?
Its EC50 is > 54.7 µM (inactive).

Which AC50 (HEK293 [5]) does the source give for `CC(=O)NC(c1cccs1)c1cc(F)c2cccnc2c1O` (configuration not stated) here?
The AC50 was 7.74 µM (active).

And the AC50 [6]?
Its AC50 is 13 µM (active).

What about the AC50 (INS1) of the same compound?
Its AC50 is 1.58 µM (active).

What about the AC50 [7] of the same compound?
The AC50 was 1.67 µM (active).

What about the AC50 [8] of the same compound?
Its AC50 is 2.94 µM (active).

What about the AC50 [9] of the same compound?
The AC50 was 5.16 µM (active).

What does the source list for `O=C(/C=C/c1cccs1)Nc1cccc(NC(=O)/C=C/c2cccs2)n1`?
IC50 [10]: 48.3 µM (active); IC50 [11]: > 100 µM (inactive); IC50 (Prothrombin): 45.6 µM (active)

With `COc1ccc(/C=C2\C(=O)NC(=S)N2C(=O)c2ccc(C)cc2)cc1` as the compound, how does the IC50 [12] read?
Its IC50 is 1.53 µM (not active).

What about the IC50 [10] of the same compound?
Its IC50 is 18.8 µM (active).

And the IC50 [11]?
Its IC50 is 20 µM (active).

What about the IC50 (Prothrombin) of the same compound?
The IC50 was 40.2 µM (active).
